pIC50: −log10 of the molar value. Starred links: 1 amine or outer side, 2 acyl side, 3 side chain; linkers in the order of their positions; H or OH if unused. Positions of bridges follow the written chain, without caps; N, C: chain ends. Non-standard residues stand in square brackets, D forms with d. Residues, ends and D or L forms follow the SMILES beside them. *: point of attachment. hPhe(3,5-F2-4-CF3) = N[C@@H](CCc1cc(F)c(C(F)(F)F)c(F)c1)C(=O)O; hPhe(3-Cl-4-CF3) = N[C@@H](CCc1ccc(C(F)(F)F)c(Cl)c1)C(=O)O; hPhe(4-CF3) = N[C@@H](CCc1ccc(C(F)(F)F)cc1)C(=O)O; 3Oxa8azabicyclo(3.2.1)octane = C1CC2COCC1N2*; NMePhe(4-Cl) = CN[C@@H](Cc1ccc(Cl)cc1)C(=O)O; NMePhe(4-I) = CN[C@@H](Cc1ccc(I)cc1)C(=O)O; NMedβ3hAla = C[C@H](CC(=O)[*:2])N(C)[*:1]; NMeGly(cPent) = CN[C@H](C(=O)O)C1CCCC1; NMeGly(cBu) = CN[C@H](C(=O)O)C1CCC1; NMeCha = CN[C@@H](CC1CCCCC1)C(=O)O; NEtLeu = CCN[C@@H](CC(C)C)C(=O)O; NMeChg = CN[C@H](C(=O)O)C1CCCCC1; NMeD = CN[C@@H](CC(=O)O)C(=O)O; NMeHpra = C#CCC[C@H](NC)C(=O)O; NMeL = CN[C@@H](CC(C)C)C(=O)O; NPrAla = CCCN[C@@H](C)C(=O)O; NMeV = CN[C@H](C(=O)O)C(C)C; d(β3hA) = C[C@@H](N)CC(=O)O; NMeS = CN[C@@H](CO)C(=O)O; Piperidide = C1CCN(*)CC1; Pyrrolidide = C1CCN(*)C1; Ac5c = NC1(C(=O)O)CCCC1; Aib = CC(C)(N)C(=O)O; Sar = CNCC(=O)O; Propyl = CCC*
Legend:
[1] = target: T1, Kras and SOS1 (biotin-tagged human Kras loaded with GDP, His-tagged human SOS1) (Homo sapiens, UniProt P01116, G12D); experiment: Protein-protein interaction inhibition between Kras and SOS1 (KrasGl2D-SOS PPI) using AlphaScreen; type: binding; conditions: AlphaScreen; biotin-tagged human Kras loaded with GDP, His-tagged human SOS1; read-out: KRAS G12D-SOS PPI IC50
T1 construct: made in house; host or cells: E. coli (stated for Kras only)
T1 sequence (P01116 1-188 isoform P01116-2 G12D): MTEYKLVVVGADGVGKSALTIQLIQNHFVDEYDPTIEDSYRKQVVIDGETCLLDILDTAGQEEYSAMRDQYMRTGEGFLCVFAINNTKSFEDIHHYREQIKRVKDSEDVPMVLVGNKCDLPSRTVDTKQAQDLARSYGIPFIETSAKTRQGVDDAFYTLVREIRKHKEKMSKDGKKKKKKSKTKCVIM
Outline: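 Kras was produced in E. coli, purified, then loaded with GDP. It was paired via streptavidin acceptor beads with His-SOS1 held on nickel donor beads, and proximity signal at 520-620 nm was read after 680 nm illumination.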

[2] = system: Human pancreatic cancer cell line AsPC-1; experiment: Measurement of AsPC-1 cell growth inhibition (AsPC-1 CGI); type: cell-based; conditions: 96 h
Outline: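 AsPC-1 cells in 15% FBS RPMI-1640 were exposed to test compound for 96 hours at 37° C, with CellTiter-Glo as endpoint.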

SMILES	pIC50 [1]	pIC50 [2]
CC[C@H](C)[C@@H]1NC(=O)[C@H](CC(C)C)N(C)C(=O)C[C@@H](C(=O)N2CCCCC2)N(C)C(=O)[C@H](C(C)C)N(C)C(=O)C2(CCCC2)NC(=O)[C@@H]2CCCN2C(=O)[C@H](CCc2ccc(C(F)(F)F)cc2)NC(=O)CN(C)C(=O)[C@H](CC2CCCCC2)N(C)C(=O)CN(C)C(=O)CN(C)C1=O [Compound 108] ([NMeL]I[Sar][Sar][NMeCha][Sar][hPhe(4-CF3)]P[Ac5c][NMeV][NMeD]-Piperidide; lactam N-11)	8.30	6.30 to 7.00
C#CCC[C@H]1C(=O)N[C@@H]([C@@H](C)CC)C(=O)N(C)CC(=O)N(C)CC(=O)N(C)[C@@H](Cc2ccc(I)cc2)C(=O)N(C)CC(=O)N[C@@H](CCc2ccc(C(F)(F)F)c(Cl)c2)C(=O)N2CCC[C@H]2C(=O)NC2(CCCC2)C(=O)N(C)[C@@H](C2CCCCC2)C(=O)N(C)[C@H](C)CC(=O)N1C [Compound 110] (cyclo([Ac5c][NMeChg][NMedβ3hAla][NMeHpra]I[Sar][Sar][NMePhe(4-I)][Sar][hPhe(3-Cl-4-CF3)]P))	8.42	6.30 to 7.00
CC[C@H](C)[C@@H]1NC(=O)[C@H](CC(C)C)N(C)C(=O)C[C@@H](C)NC(=O)[C@H](CC(C)C)N(C)C(=O)C(C)(C)NC(=O)[C@H](CC(C)C)N(C)C(=O)[C@H](CCc2cc(F)c(C(F)(F)F)c(F)c2)NC(=O)CN(C)C(=O)[C@H](CC2CCCCC2)N(C)C(=O)CN(C)C(=O)CN(C)C1=O [Compound 119] (cyclo([Aib][NMeL][d(β3hA)][NMeL]I[Sar][Sar][NMeCha][Sar][hPhe(3,5-F2-4-CF3)][NMeL]))	7.41	6.30 to 7.00
CC[C@H](C)[C@@H]1NC(=O)[C@H](CC(C)C)N(C)C(=O)C[C@@H](C)NC(=O)[C@H](C(C)C)N(C)C(=O)C2(CCCC2)NC(=O)[C@@H]2CCCN2C(=O)[C@H](CCc2ccc(C(F)(F)F)c(Cl)c2)NC(=O)CN(C)C(=O)[C@H](Cc2ccc(Cl)cc2)N(C)C(=O)CN(C)C(=O)CN(C)C1=O [Compound 121] (cyclo([Ac5c][NMeV][d(β3hA)][NMeL]I[Sar][Sar][NMePhe(4-Cl)][Sar][hPhe(3-Cl-4-CF3)]P))	8.27	6.30 to 7.00
CC[C@H](C)[C@@H]1NC(=O)[C@H](CC(C)C)N(C)C(=O)C[C@@H](C)NC(=O)[C@H](C2CCCC2)N(C)C(=O)C2(CCCC2)NC(=O)[C@@H]2CCCN2C(=O)[C@H](CCc2ccc(C(F)(F)F)c(Cl)c2)NC(=O)CN(C)C(=O)[C@H](CC2CCCCC2)N(C)C(=O)CN(C)C(=O)CN(C)C1=O [Compound 122] (cyclo([Ac5c][NMeGly(cPent)][d(β3hA)][NMeL]I[Sar][Sar][NMeCha][Sar][hPhe(3-Cl-4-CF3)]P))	8.07	6.30 to 7.00
CCCOC[C@H]1C(=O)N(C)CC(=O)N[C@@H](CCc2ccc(C(F)(F)F)c(Cl)c2)C(=O)N2CCC[C@H]2C(=O)NC2(CCCC2)C(=O)N(C)[C@@H](C2CCCCC2)C(=O)N(C)[C@H](C(=O)N2CCCC2)CC(=O)N(C)[C@@H](C2CCC2)C(=O)N[C@@H]([C@@H](C)CC)C(=O)N(C)CC(=O)N(C)CC(=O)N1C [Compound 126] ([NMeGly(cBu)]I[Sar][Sar][NMeS](Propyl)[Sar][hPhe(3-Cl-4-CF3)]P[Ac5c][NMeChg][NMeD]-Pyrrolidide; lactam N-11)	9.30	7.00 to 7.30
CCCN1C(=O)C[C@@H](C(=O)N2CCCCC2)N(C)C(=O)[C@H](C(C)C)N(C)C(=O)C2(CCCC2)NC(=O)[C@@H]2CCCN2C(=O)[C@H](CCc2ccc(C(F)(F)F)c(Cl)c2)NC(=O)CN(C)C(=O)[C@H](CC2CCCCC2)N(C)C(=O)CN(C)C(=O)CN(C)C(=O)[C@H]([C@@H](C)CC)NC(=O)[C@@H]1C [Compound 131] ([NPrAla]I[Sar][Sar][NMeCha][Sar][hPhe(3-Cl-4-CF3)]P[Ac5c][NMeV][NMeD]-Piperidide; lactam N-11)	8.48	6.30 to 7.00
CC[C@H](C)[C@@H]1NC(=O)[C@H](CC(C)C)N(CC)C(=O)C[C@@H](C(=O)N2CCCCC2)N(C)C(=O)[C@H](C2CCCCC2)N(C)C(=O)C2(CCCC2)NC(=O)[C@@H]2CCCN2C(=O)[C@H](CCc2ccc(C(F)(F)F)c(Cl)c2)NC(=O)CN(C)C(=O)[C@H](CC2CCCCC2)N(C)C(=O)CN(C)C(=O)CN(C)C1=O [Compound 137] ([NEtLeu]I[Sar][Sar][NMeCha][Sar][hPhe(3-Cl-4-CF3)]P[Ac5c][NMeChg][NMeD]-Piperidide; lactam N-11)	9.12	7.00 to 7.30
CCCOC[C@H]1C(=O)N(C)CC(=O)N[C@@H](CCc2ccc(C(F)(F)F)c(Cl)c2)C(=O)N2CCC[C@H]2C(=O)NC2(CCCC2)C(=O)N(C)[C@@H](C2CCCCC2)C(=O)N(C)[C@H](C(=O)N2C3CCC2COC3)CC(=O)N(C)[C@@H](C2CCC2)C(=O)N[C@@H]([C@@H](C)CC)C(=O)N(C)CC(=O)N(C)CC(=O)N1C [Compound 140] ([NMeGly(cBu)]I[Sar][Sar][NMeS](Propyl)[Sar][hPhe(3-Cl-4-CF3)]P[Ac5c][NMeChg][NMeD]-{3Oxa8azabicyclo(3.2.1)octane}; lactam N-11)	9.09	6.30 to 7.00

— US12371454B2, “Cyclic peptide compound having Kras inhibitory action” (priority 2019, dated 2025)
